From US12258540B2, “Environmentally compatible detergents for inactivation of lipid-enveloped viruses” (TAKEDA PHARMACEUTICAL COMPANY LIMITED, priority 2017, dated 2025)

Tests used:
[1] = system: aquatic organisms; conditions: Triton X-100 and its break-down products; recent ecological studies; cited from earlier work
[2] = system: pseudorabies virus (PRV); type: cell-based; conditions: S/D treatment 0.04%-0.06% detergent, IVIG-containing liquid, 17° C.±1° C., FIG. 9A

Substance | endocrine disrupter behaviour in aquatic organisms [1] | inactivation kinetics compared to Triton X-100, PRV [2]
4-(1,1,3,3-tetramethylbutyl)phenol, ethoxylated [Triton X-100] | can potentially behave as endocrine disrupters in aquatic organisms | –
4-tert-octylbenzyl alcohol polyethoxylate | – | identical inactivation kinetics
